Assay results published in patent US11491178B2, “Chitosan covalently linked with small molecule integrin antagonist for targeted delivery” (Hoffmann-La Roche Inc., priority 2012, dated 2022).
Where two headings read alike, the source gives them in different places.

Molecular target: T1, VLA-4 (α4β1) (Homo sapiens, UniProt P05556+P13612)
T1 construct: Jurkat cells express high levels of VLA-4 on their membrane surface; host or cells: Jurkat Clone E6-1
Assay: VLA-4 (α4β1) binding assay: Jurkat cell adhesion to VCAM-1-coated plates
Type: cell-based
Method: Chitosan covalently linked with small molecule α4β1 antagonists having the general structure of formula IA below were assessed for their α4β1 (VLA-4) binding affinity:
The following adhesion assay has been reported previously and used in this invention with minor modification. See U.S. Pat. Nos. 6,229,011 and 6,380,387 both of which are incorporated herein by reference in their entirety. […] Each assay was conducted in a 96-well plate with VCAM-1 used as the counter ligand for the cells (i.e., VCAM-1 was bound to the surface of the wells).
More specifically, 96-well high-binding F96 Maxisorp immuno microtiter plates (Nunc) were coated overnight with 25 ng/well of VCAM-1. […]
To assess VLA-4 inhibition by the VLA-4 targeted chitosans (from the examples), Jurkat cells (expressing high levels of VLA-4) were added to the VCAM-1-coated plates to a final concentration of 2×10^5 cells/well in 96-well plates and allowed to incubate with the test chitosans (from the examples) for 45 minutes at 37° C. After removing unbound cells by gently washing the wells with PBS, the fluorescence signal from the bound cells was read on a Tecan Safire2 microplate reader at 450 nm. Points were plotted and the IC50s of each derivatized chitosan polymer were determined by regression analysis using the linear portion of the concentration-response curve.

T1 sequence (P13612 34-1032): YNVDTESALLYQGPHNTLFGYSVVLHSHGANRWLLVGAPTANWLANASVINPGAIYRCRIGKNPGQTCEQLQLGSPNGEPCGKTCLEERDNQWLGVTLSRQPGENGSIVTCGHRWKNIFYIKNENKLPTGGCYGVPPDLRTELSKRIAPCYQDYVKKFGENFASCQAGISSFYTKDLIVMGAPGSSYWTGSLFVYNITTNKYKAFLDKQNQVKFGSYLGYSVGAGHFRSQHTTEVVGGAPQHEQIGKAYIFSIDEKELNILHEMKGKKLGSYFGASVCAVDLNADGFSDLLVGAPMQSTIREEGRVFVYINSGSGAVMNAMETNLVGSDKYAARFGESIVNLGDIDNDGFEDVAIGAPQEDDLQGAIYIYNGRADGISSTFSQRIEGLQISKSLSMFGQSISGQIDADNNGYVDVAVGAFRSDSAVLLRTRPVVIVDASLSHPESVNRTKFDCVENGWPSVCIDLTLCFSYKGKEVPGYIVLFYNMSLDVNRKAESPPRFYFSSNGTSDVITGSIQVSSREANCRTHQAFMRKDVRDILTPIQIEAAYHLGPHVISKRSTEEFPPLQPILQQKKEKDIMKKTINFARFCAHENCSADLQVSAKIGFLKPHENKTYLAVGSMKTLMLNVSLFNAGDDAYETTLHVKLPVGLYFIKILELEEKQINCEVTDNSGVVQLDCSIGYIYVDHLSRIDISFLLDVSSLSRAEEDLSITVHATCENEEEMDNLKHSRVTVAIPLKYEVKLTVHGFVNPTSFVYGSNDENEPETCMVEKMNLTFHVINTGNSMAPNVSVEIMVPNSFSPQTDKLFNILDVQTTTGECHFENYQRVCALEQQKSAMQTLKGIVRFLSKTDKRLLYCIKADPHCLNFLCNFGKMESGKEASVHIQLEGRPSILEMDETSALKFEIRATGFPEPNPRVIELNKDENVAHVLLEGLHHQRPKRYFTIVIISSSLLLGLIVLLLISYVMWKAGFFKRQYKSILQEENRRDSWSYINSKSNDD
T1 sequence (P05556 21-798): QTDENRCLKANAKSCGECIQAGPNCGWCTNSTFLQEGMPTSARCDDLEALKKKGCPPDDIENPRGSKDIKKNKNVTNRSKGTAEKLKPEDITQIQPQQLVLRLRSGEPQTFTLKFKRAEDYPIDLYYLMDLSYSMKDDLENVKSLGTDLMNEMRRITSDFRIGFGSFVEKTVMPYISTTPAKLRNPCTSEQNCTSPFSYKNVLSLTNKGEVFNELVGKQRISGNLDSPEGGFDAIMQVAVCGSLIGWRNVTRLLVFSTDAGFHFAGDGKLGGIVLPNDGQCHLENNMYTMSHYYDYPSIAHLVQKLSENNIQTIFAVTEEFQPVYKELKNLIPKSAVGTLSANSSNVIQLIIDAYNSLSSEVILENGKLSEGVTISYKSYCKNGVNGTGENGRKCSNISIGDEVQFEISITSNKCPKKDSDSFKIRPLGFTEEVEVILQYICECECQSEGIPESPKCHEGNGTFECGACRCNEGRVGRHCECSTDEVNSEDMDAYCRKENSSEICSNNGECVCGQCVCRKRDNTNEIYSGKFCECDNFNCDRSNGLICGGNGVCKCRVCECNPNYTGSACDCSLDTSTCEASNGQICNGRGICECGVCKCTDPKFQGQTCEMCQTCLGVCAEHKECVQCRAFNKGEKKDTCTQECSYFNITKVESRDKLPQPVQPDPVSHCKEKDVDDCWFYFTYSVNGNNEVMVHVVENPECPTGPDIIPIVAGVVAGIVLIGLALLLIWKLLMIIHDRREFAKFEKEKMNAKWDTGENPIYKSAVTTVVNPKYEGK

SMILES: Cc1cccc(Cl)c1C(=O)NC(Cc1ccc(NC(=O)c2c(Cl)cccc2Cl)cc1)C(=O)O (centres unmarked) [Control (27), reference compound]
- IC50 (Jurkat cells on VCAM-1-coated plates, Mn2+ activated, 45 minutes at 37° C., Table 1, read-out: Binding IC50): 4 nM
- IC50 (control compound in the Jurkat/VCAM-1 adhesion assay, read-out: IC50): ~12 nM
